# Reference: ChEMBL document CHEMBL4680318, “(S)-Erypoegin K, an isoflavone isolated from Erythrina poeppigiana, is a novel inhibitor of topoisomerase IIα: Induction of G2 phase arrest in human gastric cancer cells” (Bioorg Med Chem, 2021)
# Active and inactive are the calls of the source. The rule behind the calls is not given here.
# Experiments:
# SF-295 = experiment: Growth inhibition of human SF-295 cells measured after 48 hrs by sulforhodamine B assay; format: functional
# MDA-MB-231 = experiment: Growth inhibition of human MDA-MB-231 cells measured after 48 hrs by sulforhodamine B assay; format: functional
# [1] = Growth inhibition of human HBC5 cells measured after 48 hrs by sulforhodamine B assay; format: functional
# NCI-H23 = experiment: Growth inhibition of human NCI-H23 cells measured after 48 hrs by sulforhodamine B assay; format: functional
# GCIY [2] = experiment: Cell cycle arrest in human GCIY cells assessed as accumulation at G0/G1 phase at 0.1 uM measured after 24 hrs by propidium iodide staining based Muse cell analyzer (reference value: 43 +/- 2.2 %); format: functional
# NCI-H460 = experiment: Growth inhibition of human NCI-H460 cells measured after 48 hrs by sulforhodamine B assay; format: functional
# RXF 631 = experiment: Growth inhibition of human RXF 631 cells measured after 48 hrs by sulforhodamine B assay; format: functional
# HCT-15 = experiment: Growth inhibition of human HCT-15 cells measured after 48 hrs by sulforhodamine B assay; format: functional
# KM12 = experiment: Growth inhibition of human KM12 cells measured after 48 hrs by sulforhodamine B assay; format: functional
# GCIY [3] = experiment: Cell cycle arrest in human GCIY cells assessed as accumulation at G2/M phase at 0.1 uM measured after 24 hrs by propidium iodide staining based Muse cell analyzer (reference value: 28.9 +/- 1.3 %); format: functional
# [4] = target: DNA topoisomerase 2-alpha (Homo sapiens) (UniProt P11388); experiment: Inhibition of human DNA topoisomerase 2alpha assessed as suppression of decatenation using catenated kinetoplast DNA as substrate measured after 30 mins by ethidium bromide staining-based UV imaging analysis
# ACHN = experiment: Growth inhibition of human ACHN cells measured after 48 hrs by sulforhodamine B assay; format: functional
# MKN-1 [5] = experiment: Cell cycle arrest in human MKN-1 cells assessed as accumulation at G2/M phase at 0.3 uM measured after 24 hrs by propidium iodide staining based Muse cell analyzer (reference value: 33.2 +/- 0.5 %); format: functional
# SF-268 = experiment: Growth inhibition of human SF-268 cells measured after 48 hrs by sulforhodamine B assay; format: functional
# GCIY [6] = experiment: Cell cycle arrest in human GCIY cells assessed as accumulation at S phase at 0.1 uM measured after 24 hrs by propidium iodide staining based Muse cell analyzer (reference value: 25.7 +/- 0.7 %); format: functional
# MKN-1 [7] = experiment: Cell cycle arrest in human MKN-1 cells assessed as accumulation at G0/G1 phase at 0.3 uM measured after 24 hrs by propidium iodide staining based Muse cell analyzer (reference value: 49.6 +/- 2.6 %); format: functional
# MKN-1 [8] = experiment: Induction of apoptosis in human MKN-1 cells assessed as activation of caspase 3 at 1 to 10 uM by fluorescence assay; format: functional, cell-based; conditions: dose 1-10 µM, time 5-35 hrs, TDE = time-dependent effect
# A549 = experiment: Growth inhibition of human A549 cells measured after 48 hrs by sulforhodamine B assay; format: functional
# [9] = Growth inhibition of human BSY1 cells measured after 48 hrs by sulforhodamine B assay; format: functional; conditions: BSY-1
# PC-3 = experiment: Growth inhibition of human PC-3 cells measured after 48 hrs by sulforhodamine B assay; format: functional
# MKN-1 [10] = experiment: Cytotoxicity against human MKN-1 cells assessed as reduction in cell viability measured after 48 hrs by MTS/CellTiter96 aqueous one solution cell proliferation assay; format: functional, cell-based; conditions: MKN-1, 48 h
# Sequence of DNA topoisomerase 2-alpha (Homo sapiens) (P11388 whole entry): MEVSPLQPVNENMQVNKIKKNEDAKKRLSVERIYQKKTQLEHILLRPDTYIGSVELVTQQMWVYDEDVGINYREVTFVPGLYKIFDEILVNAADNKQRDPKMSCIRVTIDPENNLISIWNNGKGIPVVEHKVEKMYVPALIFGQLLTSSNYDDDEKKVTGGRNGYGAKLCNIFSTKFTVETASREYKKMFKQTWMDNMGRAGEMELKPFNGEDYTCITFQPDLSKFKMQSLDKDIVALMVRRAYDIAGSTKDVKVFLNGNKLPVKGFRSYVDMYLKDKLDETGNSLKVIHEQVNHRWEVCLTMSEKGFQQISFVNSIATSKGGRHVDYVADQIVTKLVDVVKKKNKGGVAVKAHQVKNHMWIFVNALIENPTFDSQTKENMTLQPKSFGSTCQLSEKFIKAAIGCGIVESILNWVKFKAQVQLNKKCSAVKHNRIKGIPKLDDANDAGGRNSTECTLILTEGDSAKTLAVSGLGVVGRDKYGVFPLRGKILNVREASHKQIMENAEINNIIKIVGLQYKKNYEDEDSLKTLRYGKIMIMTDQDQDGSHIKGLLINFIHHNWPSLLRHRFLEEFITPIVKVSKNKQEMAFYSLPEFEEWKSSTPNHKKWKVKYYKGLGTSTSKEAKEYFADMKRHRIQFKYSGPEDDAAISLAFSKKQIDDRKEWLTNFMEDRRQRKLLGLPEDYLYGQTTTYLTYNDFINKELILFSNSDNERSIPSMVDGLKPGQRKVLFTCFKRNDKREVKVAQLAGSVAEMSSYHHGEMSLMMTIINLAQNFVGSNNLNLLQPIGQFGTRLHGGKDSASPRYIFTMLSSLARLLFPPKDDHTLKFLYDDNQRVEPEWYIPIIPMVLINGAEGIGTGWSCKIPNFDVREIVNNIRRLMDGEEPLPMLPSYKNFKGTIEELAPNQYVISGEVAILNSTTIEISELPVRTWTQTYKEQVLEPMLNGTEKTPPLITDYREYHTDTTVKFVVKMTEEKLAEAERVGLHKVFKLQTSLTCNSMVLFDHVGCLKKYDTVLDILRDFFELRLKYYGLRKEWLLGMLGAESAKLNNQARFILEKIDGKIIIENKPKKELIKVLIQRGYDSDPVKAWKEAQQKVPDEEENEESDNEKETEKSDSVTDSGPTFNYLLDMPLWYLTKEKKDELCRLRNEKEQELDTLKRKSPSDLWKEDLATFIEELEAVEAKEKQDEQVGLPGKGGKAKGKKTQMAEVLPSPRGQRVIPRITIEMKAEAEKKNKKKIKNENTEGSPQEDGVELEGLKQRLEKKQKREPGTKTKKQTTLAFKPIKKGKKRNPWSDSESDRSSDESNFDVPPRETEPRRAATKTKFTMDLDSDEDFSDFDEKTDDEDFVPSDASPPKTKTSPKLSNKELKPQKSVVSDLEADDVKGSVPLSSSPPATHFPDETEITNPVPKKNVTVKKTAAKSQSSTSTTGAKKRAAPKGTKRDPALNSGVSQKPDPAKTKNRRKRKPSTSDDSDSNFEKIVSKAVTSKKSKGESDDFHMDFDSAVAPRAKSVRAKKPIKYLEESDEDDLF
smiles,measurement,setting,value
CC(C)(O)[C@@H]1Cc2c(cc(O)c3c(=O)c(-c4ccc(O)cc4)coc23)O1,GI50,SF-295,275 nM
same,GI50,MDA-MB-231,1740 nM
same,GI50,[1],6760 nM
same,GI50,NCI-H23,380 nM
same,Activity,GCIY [2],34.6%
same,GI50,NCI-H460,70.8 nM
same,GI50,RXF 631,5010 nM
same,GI50,HCT-15,676 nM
same,GI50,KM12,813 nM
same,Activity,GCIY [3],40.4%
same,inhibition,[4],Active
same,GI50,ACHN,182 nM
same,Activity,MKN-1 [5],83.6%
same,GI50,SF-268,457 nM
same,Activity,GCIY [6],22.4%
same,Activity,MKN-1 [7],4.9%
same,Activity,MKN-1 [8],Tde
same,GI50,A549,120 nM
same,GI50,[9],631 nM
same,GI50,PC-3,> 100000 nM
same,IC50,MKN-1 [10],327 nM
